Data: patent US12391676B2 (H. LEE MOFFITT CANCER CENTER AND RESEARCH INSTITUTE, INC., priority 2018, dated 2025)
pIC50: −log10 of the molar value. “Also recorded” adds a separate entry of the source. Where two headings read alike, the source gives them in different places.

Experiments:
MM1.S cells = assay: Antiproliferative activity, MM1.S cells; format: cell-based; conditions: Homo sapiens; for pIC50: Table 1 comments; for GI50: Table 2, read-out: GI50 (MM1S)
Summary of the method: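 MM.1S and MV4-11 AML cells were treated with compounds; c-Myc levels served as biomarker after 6-12 hr treatment, and antiproliferative activity was measured after 48-72 hr treatment.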

SET2 cells = assay: Growth inhibition GI50, SET2 cells; format: cell-based; conditions: Homo sapiens, SET-2; Table 1 comments; unit printed only for the neighbouring values in the cell
[1] = Mouse microsome stability; format: in vitro ADME; conditions: Table 1 comments; meaning of % not stated
UKE1 cells [2] = assay: Growth inhibition GI50, UKE1 cells; format: cell-based
BRD4 [3] = biological target: T1, BRD4 (Homo sapiens (Human), UniProt O60885); assay: BRD4 DSF thermal shift (ΔTm); format: binding; conditions: for DSF ΔTm: Table 1; for BRD4 DSF (ΔTm): Table 2
BaF3-JAK2-VF cells = assay: Growth inhibition GI50, BaF3-JAK2-VF cells; format: cell-based; conditions: Table 1 comments
c-Myc = conditions: background, literature; cited from earlier work
UKE1 cells [4] = assay: Drug persistence of UKE1 cells under escalating drug concentration; format: cell-based; conditions: for development of drug persistence: UKE1 cells started at GI20, concentration doubled if growth >90% of DMSO; for final drug concentration at the end of the experiment: drug persistence experiment
Description: UKE1 cells were incubated with DMSO, MA9-060, fedratinib, or ruxolitinib at their respective GI20 concentrations. Cell growth was compared to DMSO. Cells were passed back to the same density after counting. Drug concentration was doubled if growth was >90% of DMSO. Fold GI20 is plotted vs time, with drug persistence represented by upward steps of the lines. The final MA9-060, ruxolitinib, and fedratinib concentrations at the end of the experiment were 0.15, 0.6 and 2.4 uM, respectively. Fedratinib-treated cells lost complete viability after about 30 days (after 3 weeks in 2.4 uM).

BRD4 [5] = biological target: T1, BRD4; assay: BRD4 IC50; format: binding; conditions: Table 2
JAK2 = JAK2 (Homo sapiens (Human), UniProt O60674); assay: JAK2 IC50; format: biochemical
BRD4-1 = BRD4-1 (Homo sapiens (Human), UniProt O60885); assay: Estimated BRD4-1 IC50; format: binding; conditions: Table 1
[6] = test system: primary human hematopoietic progenitor cells; assay: CFU-G/M colony formation of primary patient cells; format: cell-based; conditions: colonies after 2 weeks
Description: (§1) Colony formation was determined after 2 weeks and is indicated relative to no drug (DMSO).

[7] = test system: BaF3-JAK2-V617F-luciferase cells; conditions: for median survival (post-treatment start): treated for 14 days
Description: Vehicle control and MA9-060 were administered orally twice daily at the indicated doses to Balb/c mice injected with BaF3-JAK2-V617F-luciferase cells. Mice were imaged for luciferase activity before (Day 0) and after 7 days of treatment (Tx) (FIG. 3A) with the mean total flux from target cells shown in (FIG. 3B).

[8] = test system: PBMCs from a JAK2-V617F+ myelofibrosis patient; assay: Epo-independent erythroid colony (EEC) formation of primary MPN patient cells; conditions: colonies after 2 weeks, relative to DMSO, compared with fedratinib and ruxolitinib
Description: as §1

MV4-11 AML cells = conditions: background, literature; read-out: IC50, proliferation of MV4-11 AML cells; cited from earlier work
[9] = Human microsome stability; format: in vitro ADME; conditions: Table 1 comments; meaning of % not stated
[10] = UKE1, Table 2, read-out: GI50 (UKE1)

Sequence of JAK2 (O60674 whole entry): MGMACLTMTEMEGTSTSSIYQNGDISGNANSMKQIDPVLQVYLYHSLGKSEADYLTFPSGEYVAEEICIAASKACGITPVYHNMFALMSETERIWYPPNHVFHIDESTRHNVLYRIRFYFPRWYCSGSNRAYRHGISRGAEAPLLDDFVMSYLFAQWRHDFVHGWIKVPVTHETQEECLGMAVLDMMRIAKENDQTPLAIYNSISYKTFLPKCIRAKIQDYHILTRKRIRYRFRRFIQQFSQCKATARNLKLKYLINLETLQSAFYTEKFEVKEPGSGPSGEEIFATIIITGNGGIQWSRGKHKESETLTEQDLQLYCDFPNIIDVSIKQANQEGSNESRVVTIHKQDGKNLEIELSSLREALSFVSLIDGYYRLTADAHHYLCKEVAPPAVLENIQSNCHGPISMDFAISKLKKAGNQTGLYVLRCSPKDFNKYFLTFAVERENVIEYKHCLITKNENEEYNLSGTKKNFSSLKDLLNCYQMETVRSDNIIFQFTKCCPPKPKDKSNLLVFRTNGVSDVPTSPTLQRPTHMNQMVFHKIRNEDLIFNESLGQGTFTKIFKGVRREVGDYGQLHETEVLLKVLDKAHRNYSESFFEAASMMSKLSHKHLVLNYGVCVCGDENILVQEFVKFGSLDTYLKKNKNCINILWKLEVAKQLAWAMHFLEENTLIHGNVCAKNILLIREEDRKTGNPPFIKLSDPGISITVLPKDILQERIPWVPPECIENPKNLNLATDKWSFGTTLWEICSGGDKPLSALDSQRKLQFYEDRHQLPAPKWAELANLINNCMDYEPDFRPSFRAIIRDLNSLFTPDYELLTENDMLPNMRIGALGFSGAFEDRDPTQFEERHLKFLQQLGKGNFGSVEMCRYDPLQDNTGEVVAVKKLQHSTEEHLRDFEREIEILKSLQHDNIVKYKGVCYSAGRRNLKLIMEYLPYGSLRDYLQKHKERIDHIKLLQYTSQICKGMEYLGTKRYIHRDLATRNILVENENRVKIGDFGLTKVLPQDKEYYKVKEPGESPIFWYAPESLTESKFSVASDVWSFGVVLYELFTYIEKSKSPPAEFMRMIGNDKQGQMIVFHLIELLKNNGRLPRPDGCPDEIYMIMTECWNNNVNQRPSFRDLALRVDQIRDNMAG

Compound	pIC50 (BRD4 [5])	pIC50 (JAK2; Table 2)	BRD4 DSF (ΔTm) (BRD4 [3]) [°C]	GI50 (MM1.S cells) [nM]	GI50 (UKE1 cells [2]; [10]) [nM]	also measured
Cc1cnc(Nc2ccc(C3CCN(C)CC3)cc2)nc1Nc1ccc(Cl)c(NS(=O)(=O)C(C)(C)C)c1 [drawing 11]						pIC50 (MM1.S cells): 6.96; GI50 (SET2 cells): 240 nM; Mouse microsome [1]: 81%; GI50 (UKE1 cells [2]; Table 1 comments, read-out: GI50 (UKE1 cells)): 340 nM; GI50 (UKE1 cells [2]; UKE1, Table 1 comments, read-out: GI50 (UKE1 cells)): 280 nM; DSF ΔTm (BRD4 [3]): 12.3 °C; GI50 (BaF3-JAK2-VF cells): 99 nM
Cc1cnc(Nc2ccc(N3CCN(C)CC3)cc2)nc1Nc1cccc(S(=O)(=O)NC(C)(C)C)c1 [TG101209]						downregulation of c-Myc in MM.1S cells (c-Myc): strong downregulation
N#CC[C@H](C1CCCC1)n1cc(-c2ncnc3[nH]ccc23)cn1 [ruxolitinib]						development of drug persistence (UKE1 cells [4]): persistently grew in increasing concentrations; final drug concentration at the end of the experiment (UKE1 cells [4]; UKE1 cells): 0.6 µM
Cc1cnc(Nc2ccc(C3CCN(C)CC3)c(F)c2)nc1Nc1cccc(NS(=O)(=O)C(C)(C)C)c1 [SY3-038, N-(3-((2-((3-Fluoro-4-(1-methylpiperidin-4-yl)phenyl)amino)-5-methylpyrimidin-4-yl)amino)phenyl)-2-methylpropane-2-sulfonamide]	7.06	9.15	12.3		64	
Cc1cnc(Nc2ccc(N3CCN(CCCN)CC3)c(F)c2)nc1Nc1cccc(NS(=O)(=O)C(C)(C)C)c1						DSF ΔTm (BRD4 [3]): 9.4 ± 0.09 °C; pIC50 (BRD4-1): 7.80
Cc1cnc(Nc2ccc(C3CCN(C)CC3)c(F)c2)nc1Nc1ccc(Cl)c(NS(=O)(=O)C(C)(C)C)c1 [MA9-060, N-(2-Chloro-5-((2-((3-fluoro-4-(1-methylpiperidin-4-yl)phenyl)amino)-5-methylpyrimidin-4-yl)amino)phenyl)-2-methylpropane-2-sulfonamide]	7.59	8.48	14.5	43	150	development of drug persistence (UKE1 cells [4]): do not develop drug persistence; also recorded: could not escape a low concentration; final drug concentration at the end of the experiment (UKE1 cells [4]; UKE1 cells): 0.15 µM; effect on CFU-G/M colony growth [6]: not affected; also recorded: Little effect; median survival (post-treatment start) ([7]; 10 mg/kg orally twice daily): 19 days; median survival (post-treatment start) ([7]; 25 mg/kg orally twice daily): 26 days; toxicity ([7]; 25 mg/kg twice daily orally): No toxicity was detected; median survival (post-treatment start) ([7]; 50 mg/kg orally twice daily): 31 days; inhibition of BaF3-JAK2-V617F-luciferase cells in Balb/c mice ([7]; oral, twice daily, luciferase imaging): dose-dependent inhibition; inhibition of Epo-independent (neoplastic) erythroid colony (EEC) formation [8]: more effective than Fedratinib or Ruxolitinib; also recorded: superior to fedratinib and ruxolitinib
Cc1cnc(Nc2ccc(OCCN3CCCC3)cc2)nc1Nc1cccc(S(=O)(=O)NC(C)(C)C)c1 [TG101348]						downregulation of c-Myc in MM.1S cells (c-Myc): strong downregulation; pIC50 (MV4-11 AML cells): 7.10
Cc1cnc(Nc2ccc(N3CCNCC3)c(F)c2)nc1Nc1ccc(Cl)c(NS(=O)(=O)C(C)(C)C)c1						pIC50 (JAK2; Table 1 comments, n = 2): 8.56; DSF ΔTm (BRD4 [3]): 13 ± 0.05 °C; pIC50 (BRD4-1): 9.00
Cc1cnc(Nc2ccc(C3CCN(C)CC3)c(F)c2)nc1Nc1ccc(Cl)c(NS(=O)(=O)C(C)(C)C)c1 [drawing 9]						pIC50 (MM1.S cells): 7.37; GI50 (SET2 cells): 54 nM; Mouse microsome [1]: 100%; Human microsome [9]: 42.6%; DSF ΔTm (BRD4 [3]): 14.2 °C; GI50 (BaF3-JAK2-VF cells): 28 nM
Cc1cnc(Nc2ccc(N3CCN(CCCN)CC3)c(F)c2)nc1Nc1ccc(Cl)c(NS(=O)(=O)C(C)(C)C)c1						DSF ΔTm (BRD4 [3]): 11 ± 0.02 °C; pIC50 (BRD4-1): 8.34
CC[C@@H]1C(=O)N(C)c2cnc(Nc3ccc(C(=O)NC4CCN(C)CC4)cc3OC)nc2N1C1CCCC1 [BI2536]						downregulation of c-Myc in MM.1S cells (c-Myc): strong downregulation
Cc1cnc(Nc2ccc(OCCN3CCCC3)cc2)nc1Nc1cccc(S(=O)(=O)NC(C)(C)C)c1 [fedratinib]						development of drug persistence (UKE1 cells [4]): persistently grew in increasing concentrations; time until treated cells lost complete viability (UKE1 cells [4]; UKE1 cells, after 3 weeks in 2.4 uM): about 30 days; final drug concentration at the end of the experiment (UKE1 cells [4]; UKE1 cells): 2.4 µM
Cc1cnc(Nc2ccc(C3CCN(C)CC3)c(F)c2)nc1Nc1ccc2c(c1)N(S(=O)(=O)C(C)(C)C)CC2 [MA9-086, N4-(1-(Tert-butylsulfonyl)indolin-6-yl)-N2-(3-fluoro-4-(1-methylpiperidin-4-yl)phenyl)-5-methylpyrimidine-2,4-diamine]	8.19	8.96	13.4	194		
Cc1cnc(Nc2ccc(C3CCN(C)CC3)cc2)nc1Nc1ccc(Cl)c(NS(=O)(=O)C(C)(C)C)c1 [MA9-050, N-(2-Chloro-5-((5-methyl-2-((4-(1-methylpiperidin-4-yl)phenyl)amino)pyrimidin-4-yl)amino)phenyl)-2-methylpropane-2-sulfonamide]	6.84	8.09	12.3	110	310	
Cc1cnc(Nc2ccc(C3CCN(C)CC3)cc2)nc1Nc1cccc(NS(=O)(=O)C(C)(C)C)c1 [SY3-034, 2-Methyl-N-(3-((5-methyl-2-((4-(1-methylpiperidin-4-yl)phenyl)amino)pyrimidin-4-yl)amino)phenyl)propane-2-sulfonamide]		8.80	10.6	91	220	

Second part, led by results:

pIC50 (BRD4 [5])	pIC50 (JAK2; Table 2)	BRD4 DSF (ΔTm) (BRD4 [3]) [°C]	GI50 (MM1.S cells) [nM]	Compound	GI50 (UKE1 cells [2]; [10]) [nM]	also measured
6.90	8.51	11.1	220	Cc1cnc(Nc2cc(F)cc(N3CCN(C)CC3)c2)nc1Nc1cccc(NS(=O)(=O)C(C)(C)C)c1 [SY3-040, N-(3-((2-((3-Fluoro-5-(4-methylpiperazin-1-yl)phenyl)amino)-5-methylpyrimidin-4-yl)amino)phenyl)-2-methylpropane-2-sulfonamide]		
5.40	< 6.00	6.0	3310	Cc1cnc(Nc2ccc(N3CCN(C)CC3)c(F)c2)cc1Nc1cccc(NS(=O)(=O)C(C)(C)C)c1 [SY3-005, N-(3-((2-((3-Fluoro-4-(4-methylpiperazin-1-yl)phenyl)amino)-5-methylpyridin-4-yl)amino)phenyl)-2-methylpropane-2-sulfonamide]	5300	
7.31	7.77	11.3	160	Cc1cnc(Nc2cc(F)cc(N3CCN(C)CC3)c2)nc1Nc1ccc(Cl)c(NS(=O)(=O)C(C)(C)C)c1 [MA9-062, N-(2-Chloro-5-((2-((3-fluoro-5-(4-methylpiperazin-1-yl)phenyl)amino)-5-methylpyrimidin-4-yl)amino)phenyl)-2-methylpropane-2-sulfonamide]		
		4.1	4790	Cc1cnc(Nc2ccc(N3CCN(C)CC3)c(F)c2)cc1Nc1cccc(S(=O)(=O)NC(C)(C)C)c1 [MA9-024, N-(Tert-butyl)-3-((2-((3-fluoro-4-(4-methylpiperazin-1-yl)phenyl)amino)-5-methylpyridin-4-yl)amino)benzenesulfonamide]	> 24000	
